Data from patent US10857246B2, “Nuclear imaging and radiotherapeutics agents targeting carbonic anhydrase IX and uses thereof” (THE JOHNS HOPKINS UNIVERSITY, priority 2015, dated 2020).
Several values for one entry are separate records, joined by “and”; a condition that tells them apart may be missing. Equal values may be shown once.

System: CAIX-expressing SK-RC-52 tumors
Test: Biodistribution in mice bearing SK-RC-52 xenografts
Assay type: in vivo
Conditions: for Biodistribution Bladder / Biodistribution Blood / Biodistribution Brain / Biodistribution Fat / Biodistribution Heart / Biodistribution Kidney / Biodistribution Liver / Biodistribution Lung / Biodistribution Muscle / Biodistribution Pancreas / Biodistribution Small intestine / Biodistribution Spleen / Biodistribution Stomach / Biodistribution Tumor / Tumor/Kidney ratio / Tumor/Blood ratio / Tumor/Muscle ratio: 740 kBq i.v.
Experimental: Animal experiments were performed in accordance with protocols approved by the Johns Hopkins Animal Care and Use Committee (ACUC). Six-week-old female NOD/SCID mice were purchased from the Animal Resource Core of the Sidney Kimmel Comprehensive Cancer Center of Johns Hopkins and were subcutaneously injected in the lower left flank or upper right flank with 1×10^6 SK-RC-52 cells in RPMI 1640 GlutaMAX™ media (Life Technologies, Frederick, Md.) supplemented with 1% fetal bovine serum (FBS). Mice were monitored for tumor size and used for SPECT/CT imaging when the size of the tumor reached 100 mm^3.
Mice bearing SK-RC-52 xenografts at lower left flank were injected intravenously with 740 kBq (20 μCi) of [^111In]XYIMSR-01, or [^177Lu]XYIMSR-01 in 200 μL of PBS. For competitive blocking, same tumor bearing mice were injected with 740 kBq (20 μCi) of [^111In]XYIMSR-01 and 200 nmole of 8 in 200 μL of PBS. At 1 h, 4 h, 8 h, 24 h and 48 h post-injection, mice were sacrificed by cervical dislocation and the blood was immediately collected by cardiac puncture. Heart, lungs, pancreas, spleen, fat, brain, muscle, small intestines, liver, stomach, kidney, urinary bladder, and tumor were collected. Each organ was weighed and the tissue radioactivity was measured with an automated gamma counter (1282 Compugamma CS, Pharmacia/LKBNuclear, Inc., Mt. Waverly, Vic. Australia). The percentage of injected dose per gram of tissue (% ID/g) was calculated by comparison with samples of a standard dilution of the initial dose. All measurements were corrected for radioactive decay.
Data were expressed as mean±standard deviation (SD). Prism software (GraphPAD, San Diego, Calif.) was used to determine statistical significance. Statistical significance was calculated using a paired t test. P-values <0.0001 were considered significant.
Mice bearing SK-RC-52 xenografts within the lower left flank were injected intravenously with 740 kBq (20 μCi) of [Al^18F]XYIMSR-04 in 200 μL of PBS. At specific 1 hour time point mentioned in the paper, mice (n=5) were sacrificed by cervical dislocation and the blood was immediately collected by cardiac puncture. Heart, lungs, pancreas, spleen, fat, brain, muscle, small intestines, liver, bone, stomach, kidney, urinary bladder, and tumor were collected. Each organ was weighed and the tissue radioactivity was measured with an automated gamma counter (1282 Compugamma CS, Pharmacia/LKBNuclear, Inc., Mt. Waverly, Vic. Australia). The percentage of injected dose per gram of tissue (% ID/g) was calculated by comparison with samples of a standard dilution of the initial dose. All measurements were corrected for radioactive decay. Data were expressed as mean±standard deviation (SD). Prism software (GraphPAD, San Diego, Calif.) was used to determine statistical significance. Statistical significance was calculated using a paired t test. P-values <0.0001 were considered significant.
Mice bearing SK-RC-52 xenografts within the upper right flank were injected intravenously with 740 kBq (20 μCi) of [^64Cu]XYIMSR-06 in 200 μL of PBS. For in vivo competition (binding specificity) studies, tumor-bearing mice were injected with 740 kBq (20 μCi) of [^64Cu]XYIMSR-06 and 200 nmole of 8 in 200 μL of PBS concurrently. At specific times after injection (1 h, 4 h, 8 h and 24 h), mice (n=5) were sacrificed by cervical dislocation with blood immediately collected by cardiac puncture. Heart, lungs, pancreas, spleen, fat, brain, muscle, small intestines, liver, stomach, kidney, urinary bladder, and tumor were also collected. Each organ was weighed and the tissue radioactivity was measured with an automated gamma counter (1282 Compugamma CS, Pharmacia/LKBNuclear, Inc., Mt. Waverly, Vic. Australia). The percentage of injected dose per gram of tissue (% ID/g) was calculated by comparison with samples of a standard dilution of the initial dose. All measurements were corrected for radioactive decay. Data were expressed as mean±standard deviation (SD). […]

Structure (SMILES): CC(CCC(=O)N[C@@H](CC(=O)N[C@@H](CC(=O)N[C@@H](CCCCn1cc(CCCC(=O)Nc2nnc(S(N)(=O)=O)s2)nn1)C(=O)NCCOCCOCCNC(=O)CN1CCN(CC(=O)[O-])CCN(CC(=O)[O-])CCN(CC(=O)[O-])CC1)C(=O)O)C(=O)O)(c1ccc(O)cc1)c1ccc(O)cc1.[111In+3] [[^111In]XYIMSR-01]
- Biodistribution Bladder (1 h post-injection): 4.90 % ID/g
- Biodistribution Blood (1 h post-injection): 1.34 % ID/g
- Biodistribution Brain (1 h post-injection): 1.23 % ID/g
- Biodistribution Fat (1 h post-injection): 1.03 % ID/g
- Biodistribution Heart (1 h post-injection): 5.98 % ID/g
- Biodistribution Kidney (1 h post-injection): 71.26 % ID/g
- Biodistribution Liver (1 h post-injection): 8.36 % ID/g
- Biodistribution Lung (1 h post-injection): 45.85 % ID/g
- Biodistribution Muscle (1 h post-injection): 2.34 % ID/g
- Biodistribution Pancreas (1 h post-injection): 3.81 % ID/g
- Biodistribution Small intestine (1 h post-injection): 9.37 % ID/g
- Biodistribution Spleen (1 h post-injection): 0.52 % ID/g
- Biodistribution Stomach (1 h post-injection): 16.71 % ID/g
- Biodistribution Tumor (1 h post-injection): 26 % ID/g and 26.01 % ID/g
- Tumor/Kidney ratio (1 h post-injection): 0.36
- Biodistribution Bladder (4 h post-injection): 2.68 % ID/g
- Biodistribution Blood (4 h post-injection): 0.65 % ID/g
- Biodistribution Brain (4 h post-injection): 0.45 % ID/g
- Biodistribution Fat (4 h post-injection): 0.42 % ID/g
- Biodistribution Heart (4 h post-injection): 2.91 % ID/g
- Biodistribution Kidney (4 h post-injection): 41.52 % ID/g
- Biodistribution Liver (4 h post-injection): 4.00 % ID/g
- Biodistribution Lung (4 h post-injection): 17.85 % ID/g
- Biodistribution Muscle (4 h post-injection): 1.01 % ID/g
- Biodistribution Pancreas (4 h post-injection): 1.54 % ID/g
- Biodistribution Small intestine (4 h post-injection): 4.27 % ID/g
- Biodistribution Spleen (4 h post-injection): 0.51 % ID/g
- Biodistribution Stomach (4 h post-injection): 7.91 % ID/g
- Biodistribution Tumor (4 h post-injection): 20.83 % ID/g
- Tumor/Blood ratio (4 h post-injection): 31.9
- Tumor/Kidney ratio (4 h post-injection): 0.50
- Tumor/Muscle ratio (4 h post-injection): 21.4
- Biodistribution Bladder (8 h post-injection): 2.28 % ID/g
- Biodistribution Blood (8 h post-injection): 0.48 % ID/g
- Biodistribution Brain (8 h post-injection): 0.59 % ID/g
- Biodistribution Fat (8 h post-injection): 0.45 % ID/g
- Biodistribution Heart (8 h post-injection): 2.61 % ID/g
- Biodistribution Kidney (8 h post-injection): 28.79 % ID/g
- Biodistribution Liver (8 h post-injection): 3.65 % ID/g
- Biodistribution Lung (8 h post-injection): 17.39 % ID/g
- Biodistribution Muscle (8 h post-injection): 1.09 % ID/g
- Biodistribution Pancreas (8 h post-injection): 1.61 % ID/g
- Biodistribution Small intestine (8 h post-injection): 4.31 % ID/g
- Biodistribution Spleen (8 h post-injection): 0.64 % ID/g
- Biodistribution Stomach (8 h post-injection): 8.74 % ID/g
- Biodistribution Tumor (8 h post-injection): 34.0 % ID/g
- Tumor/Blood ratio (8 h post-injection): 77.0
- Tumor/Kidney ratio (8 h post-injection): 3.1
- Tumor/Muscle ratio (8 h post-injection): 34.2
- All other tumor/organ ratios (24 h): ≥ 10
- Biodistribution Bladder (24 h + block (200 nmole of 8)): 0.20 % ID/g
- Biodistribution Blood (24 h + block (200 nmole of 8)): 0.03 % ID/g
- Biodistribution Brain (24 h + block (200 nmole of 8)): 0.03 % ID/g
- Biodistribution Fat (24 h + block (200 nmole of 8)): 0.02 % ID/g
- Biodistribution Heart (24 h + block (200 nmole of 8)): 0.04 % ID/g
- Biodistribution Kidney (24 h + block (200 nmole of 8)): 0.68 % ID/g
- Biodistribution Liver (24 h + block (200 nmole of 8)): 0.10 % ID/g
- Biodistribution Lung (24 h + block (200 nmole of 8)): 0.12 % ID/g
- Biodistribution Muscle (24 h + block (200 nmole of 8)): 0.02 % ID/g
- Biodistribution Pancreas (24 h + block (200 nmole of 8)): 0.03 % ID/g
- Biodistribution Small intestine (24 h + block (200 nmole of 8)): 0.08 % ID/g
- Biodistribution Spleen (24 h + block (200 nmole of 8)): 0.08 % ID/g
- Biodistribution Stomach (24 h + block (200 nmole of 8)): 0.14 % ID/g
- Biodistribution Tumor (24 h + block (200 nmole of 8)): 1.41 % ID/g
- Tumor/Blood ratio (24 h + block (200 nmole of 8)): 45.2
- Tumor/Kidney ratio (24 h + block (200 nmole of 8)): 2.1
- Tumor/Muscle ratio (24 h + block (200 nmole of 8)): 91.4
- Uptake to tumors with simultaneously injected non-radioactive competitor 8 (24 h and 48 h post injection): ~1%
- Biodistribution Bladder (24 h post-injection): 0.74 % ID/g
- Biodistribution Blood (24 h post-injection): 0.15 % ID/g
- Biodistribution Brain (24 h post-injection): 0.71 % ID/g
- Biodistribution Fat (24 h post-injection): 0.28 % ID/g
- Biodistribution Heart (24 h post-injection): 1.16 % ID/g
- Biodistribution Kidney (24 h post-injection): 15.29 % ID/g
- Biodistribution Liver (24 h post-injection): 3.02 % ID/g
- Biodistribution Lung (24 h post-injection): 11.01 % ID/g
- Biodistribution Muscle (24 h post-injection): 0.35 % ID/g
- Biodistribution Pancreas (24 h post-injection): 0.69 % ID/g
- Biodistribution Small intestine (24 h post-injection): 2.11 % ID/g
- Biodistribution Spleen (24 h post-injection): 0.69 % ID/g
- Biodistribution Stomach (24 h post-injection): 3.31 % ID/g
- Biodistribution Tumor (24 h post-injection): 25.62 % ID/g
- Biodistribution Bladder (48 h + block (200 nmole of 8)): 0.14 % ID/g
- Biodistribution Blood (48 h + block (200 nmole of 8)): 0.03 % ID/g
- Biodistribution Brain (48 h + block (200 nmole of 8)): 0.03 % ID/g
- Biodistribution Fat (48 h + block (200 nmole of 8)): 0.03 % ID/g
- Biodistribution Heart (48 h + block (200 nmole of 8)): 0.04 % ID/g
- Biodistribution Kidney (48 h + block (200 nmole of 8)): 0.45 % ID/g
- Biodistribution Liver (48 h + block (200 nmole of 8)): 0.13 % ID/g
- Biodistribution Lung (48 h + block (200 nmole of 8)): 0.09 % ID/g
- Biodistribution Muscle (48 h + block (200 nmole of 8)): 0.02 % ID/g
- Biodistribution Pancreas (48 h + block (200 nmole of 8)): 0.03 % ID/g
- Biodistribution Small intestine (48 h + block (200 nmole of 8)): 0.08 % ID/g
- Biodistribution Spleen (48 h + block (200 nmole of 8)): 0.11 % ID/g
- Biodistribution Stomach (48 h + block (200 nmole of 8)): 0.14 % ID/g
- Biodistribution Tumor (48 h + block (200 nmole of 8)): 1.22 % ID/g
- Tumor/Blood ratio (48 h + block (200 nmole of 8)): 45.4
- Tumor/Kidney ratio (48 h + block (200 nmole of 8)): 2.7
- Tumor/Muscle ratio (48 h + block (200 nmole of 8)): 75.1
- Biodistribution Bladder (48 h post-injection): 0.38 % ID/g
- Biodistribution Blood (48 h post-injection): 0.06 % ID/g
- Biodistribution Brain (48 h post-injection): 0.41 % ID/g
- Biodistribution Fat (48 h post-injection): 0.25 % ID/g
- Biodistribution Heart (48 h post-injection): 0.84 % ID/g
- Biodistribution Kidney (48 h post-injection): 8.78 % ID/g
- Biodistribution Liver (48 h post-injection): 1.65 % ID/g
- Biodistribution Lung (48 h post-injection): 9.22 % ID/g
- Biodistribution Muscle (48 h post-injection): 0.39 % ID/g
- Biodistribution Pancreas (48 h post-injection): 0.59 % ID/g
- Biodistribution Small intestine (48 h post-injection): 1.22 % ID/g
- Biodistribution Spleen (48 h post-injection): 0.67 % ID/g
- Biodistribution Stomach (48 h post-injection): 1.82 % ID/g
- Biodistribution Tumor (48 h post-injection): 13.92 % ID/g
- Tumor/Blood ratio (48 h post-injection): 212.0
- Tumor/Kidney ratio (48 h post-injection): 1.5
- Tumor/Muscle ratio (48 h post-injection): 52.0
